Tests used:
barnyardgrass [1] = experiment: Test A preemergence; assay type: in vivo, Echinochloa crus-galli; details: for Barnyardgrass plant response rating: approx. 10 days
In short: (§1)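 Injury scores run from 0, no effect, to 100, complete control, judged by eye against untreated plants roughly 10 days after treatment. Chemicals carried a surfactant in a non-phytotoxic solvent and went onto loam–sand soil preemergence or onto one- to two-leaf seedlings postemergence.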

barnyardgrass [2] = experiment: Test A postemergence; assay type: in vivo, Echinochloa crus-galli
In short: as §1

corn = experiment: Test A postemergence; assay type: in vivo, Zea mays
In short: as §1

rice = experiment: Test B flooded paddy test; assay type: in vivo, Oryza sativa; details: Flood, 250 g ai/ha; 0 to 100 scale where 0 is no effect and 100 is complete control
In short: (§2)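 2-leaf stage plants; pots flooded to 3 cm, compound added to paddy water, depth maintained. Greenhouse 13–15 d. Visual rating vs untreated controls, 0 (no effect) to 100 (complete control); dash = no result.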

sedge, umbrella = experiment: Test B flooded paddy test; assay type: in vivo, Cyperus difformis; details: Flood, 250 g ai/ha; 0 to 100 scale where 0 is no effect and 100 is complete control
In short: as §2

large (Lg) crabgrass = experiment: Test C postemergence; assay type: in vivo, Digitaria sanguinalis; details: for Plant response rating, Crabgrass, Large / Crabgrass, Large plant response rating: scale 0 to 100 (0 no effect, 100 complete control)
In short: (§3)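 Visual injury score versus untreated controls, 0 = no effect, 100 = complete control, taken 13 to 15 days after treatment in the greenhouse. Pre-emergence pots held loam/sand; post-emergence plants grew in sphagnum peat/vermiculite mix and were sprayed at the 1- to 4-leaf stage.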

lambsquarters = experiment: Test C postemergence; assay type: in vivo, Chenopodium album
In short: as §3

soybean = experiment: Test C postemergence; assay type: in vivo, Glycine max
In short: as §3

oilseed rape = experiment: Test C postemergence; assay type: in vivo, Brassica napus
Source text: (§4) Seeds of plant species selected from blackgrass (Alopecurus myosuroides), Italian ryegrass (Lolium multiflorum), wheat, winter (winter wheat, Triticum aestivum), galium (catchweed bedstraw, Galium aparine), corn (Zea mays), large (Lg) crabgrass (Digitaria sanguinalis), giant foxtail (Setaria faberii), johnsongrass (Sorghum halepense), lambsquarters (Chenopodium album), morningglory (Ipomoea coccinea), yellow nutsedge (Cyperus esculentus), pigweed (Amaranthus retroflexus), ragweed (common ragweed, Ambrosia elatior), soybean (Glycine max), barnyardgrass (Echinochloa crus-galli), oilseed rape (Brassica napus), waterhemp (common waterhemp, Amaranthus rudis), kochia (Kochia scoparia), wild oat (Avena fatua), surinam grass (Brachiaria decumbens), foxtail, green (green foxtail, Setaria viridis), goosegrass (Eleusine indica), bromegrass, downy (downy bromegrass, Bromus tectorum), nightshade (eastern black nightshade, Solanum ptycanthum), cocklebur (common cocklebur, Xanthium strumarium), cupgrass, woolly (woolly cupgrass, Eriochloa villosa), bermudagrass (Cynodon dactylon), sunflower, (common oilseed sunflower, Helianthus annuus), Russian thistle (Salsola kali), and velvetleaf (Abutilon theophrasti) were planted into a blend of loam soil and sand and treated preemergence with test chemicals formulated in a non-phytotoxic solvent mixture which included a surfactant.
(§5) At the same time, plants selected from these crop and weed species and also barley, winter (winter barley, Hordeum vulgare), windgrass (Apera spica-venti), chickweed (common chickweed, Stellaria media), deadnettle (henbit deadnettle, Lamium amplexicaule), and canarygrass (littleseed canarygrass, Phalaris minor) were planted in pots containing Redi-Earth® planting medium (Scotts Company, 14111 Scottslawn Road, Marysville, Ohio 43041) comprising spaghnum peat moss, vermiculite, wetting agent and starter nutrients and treated with postemergence applications of test chemicals formulated in the same manner. Plants ranged in height from 2 to 18 cm (1- to 4-leaf stage) for postemergence treatments. Treated plants and controls were maintained in a greenhouse for 13 to 15 days, after which time all species were compared to controls and visually evaluated. Plant response ratings, summarized in Table C, are based on a scale of 0 to 100 where 0 is no effect and 100 is complete control. A dash (-) response means no test result.

waterhemp = experiment: Test C postemergence; assay type: in vivo, Amaranthus rudis
Source text: as §4, §5

velvetleaf = experiment: Test C postemergence; assay type: in vivo, Abutilon theophrasti
In short: as §3

[3] = 125 g ai/ha, 0 to 100 scale where 0 is no effect and 100 is complete control
[4] = 31 g ai/ha, 0 to 100 scale, 0 no effect, 100 complete control
[5] = 16 g ai/ha, postemergence, 0 is no effect, 100 is complete control
[6] = 125 g ai/ha, postemergence, visual rating
[7] = 125 g ai/ha, postemergence, visual rating, scale 0 to 100 (0 no effect, 100 complete control)
[8] = Postemergence, 62 g ai/ha, scale 0 to 100 (0 no effect, 100 complete control)
[9] = 1000 g ai/ha, 0 to 100 scale, 0 no effect, 100 complete control
[10] = Postemergence, 31 g ai/ha, 13 to 15 days
[11] = Postemergence, 31 g ai/ha, scale 0 to 100 (0 no effect, 100 complete control), 13 to 15 days
[12] = 500 g ai/ha, 0 to 100 scale, 0 no effect, 100 complete control
[13] = 31 g ai/ha, postemergence, visual rating, scale 0 to 100 (0 no effect, 100 complete control), 13 to 15 days

FCc1cccc(Oc2ncc(Br)cn2)c1-n1cc(C(F)(F)F)cn1 [Compound 120]
Barnyardgrass plant response rating (0 to 100 scale) (barnyardgrass [1]; 31 g ai/ha): 20 | Plant response rating, Barnyardgrass (barnyardgrass [1]; [3]): 70 | Plant response rating, Barnyardgrass (barnyardgrass [2]; [4]): 20 | Plant response rating, Barnyardgrass (barnyardgrass [2]; [3]): 80 | Plant response rating, Corn (corn; [4]): 10 | Plant response rating, Corn (corn; [3]): 50 | Plant response rating, Rice (rice): 0 | Plant response rating, Sedge, Umbrella (sedge, umbrella): 95 | Plant response rating (0 to 100), Crabgrass, Large (large (Lg) crabgrass; [5]): 5 | Plant response rating, Crabgrass, Large (large (Lg) crabgrass; [6]): 10 | Plant response rating, Crabgrass, Large (large (Lg) crabgrass; Postemergence, 62 g ai/ha): 10 | Plant response rating (0 to 100), Lambsquarters (lambsquarters; [5]): 55 | Plant response rating, Lambsquarters (lambsquarters; [7]): 85 | Plant response rating, Lambsquarters (lambsquarters; [8]): 70 | Plant response rating (0 to 100), Soybean (soybean; [5]): 30 | Plant response rating, Soybean (soybean; [7]): 80 | Plant response rating, Soybean (soybean; [8]): 30 | Plant response rating (0 to 100), Oilseed Rape (oilseed rape; [5]): 5 | Plant response rating, Oilseed Rape (oilseed rape; [7]): 15 | Plant response rating, Oilseed Rape (oilseed rape; [8]): 5 | Plant response rating (0 to 100), Waterhemp (waterhemp; [5]): 75 | Plant response rating, Waterhemp (waterhemp; [7]): 85 | Plant response rating, Waterhemp (waterhemp; [8]): 80 | Plant response rating (0 to 100), Velvetleaf (velvetleaf; [5]): 10 | Plant response rating, Velvetleaf (velvetleaf; [7]): 50 | Plant response rating, Velvetleaf (velvetleaf; [8]): 35

Clc1cnc(Oc2cccc(Br)c2-n2cc(Br)cn2)nc1 [Compound 65]
Plant response rating, Barnyardgrass (barnyardgrass [1]; [9]): 100 | Plant response rating, Barnyardgrass (barnyardgrass [2]; [9]): 100 | Plant response rating, Corn (corn; [9]): 70 | Plant response rating, Rice (rice): 0 | Plant response rating, Sedge, Umbrella (sedge, umbrella): 95 | Crabgrass, Large plant response rating (large (Lg) crabgrass; 16 g ai/ha, postemergence, visual rating, 13 to 15 days): 5 | Plant response rating (0 to 100), Crabgrass, Large (large (Lg) crabgrass; 125 g ai/ha, postemergence): 5 | Plant response rating, Crabgrass, Large (large (Lg) crabgrass; [10]): 5 | Plant response rating, Crabgrass, Large (large (Lg) crabgrass; Postemergence, 62 g ai/ha): 5 | Plant response rating (0 to 100), Lambsquarters (lambsquarters; 125 g ai/ha, postemergence): 90 | Plant response rating, Lambsquarters (lambsquarters; [11]): 80 | Plant response rating, Lambsquarters (lambsquarters; [8]): 75 | Plant response rating (0 to 100), Soybean (soybean; 125 g ai/ha, postemergence): 85 | Plant response rating, Soybean (soybean; [11]): 40 | Plant response rating, Soybean (soybean; [8]): 60 | Plant response rating (0 to 100), Oilseed Rape (oilseed rape; 125 g ai/ha, postemergence): 90 | Plant response rating, Oilseed Rape (oilseed rape; [11]): 25 | Plant response rating, Oilseed Rape (oilseed rape; [8]): 60 | Plant response rating (0 to 100), Waterhemp (waterhemp; 125 g ai/ha, postemergence): 90 | Plant response rating, Waterhemp (waterhemp; [11]): 75 | Plant response rating, Waterhemp (waterhemp; [8]): 95 | Plant response rating (0 to 100), Velvetleaf (velvetleaf; 125 g ai/ha, postemergence): 65 | Plant response rating, Velvetleaf (velvetleaf; [11]): 50 | Plant response rating, Velvetleaf (velvetleaf; [8]): 55

N#Cc1cccc(Oc2ncc(Cl)cn2)c1-n1cnc(Br)c1 [Compound 74]
Plant response rating, Barnyardgrass (barnyardgrass [1]; [3]): 70 | Barnyardgrass plant response rating (barnyardgrass [1]; [12]): 100 | Plant response rating, Barnyardgrass (barnyardgrass [2]; [3]): 90 | Plant response rating, Barnyardgrass (barnyardgrass [2]; [12]): 90 | Plant response rating, Corn (corn; [3]): 30 | Plant response rating, Corn (corn; [12]): 70 | Plant response rating, Rice (rice): 0 | Plant response rating, Sedge, Umbrella (sedge, umbrella): 70 | Plant response rating (0 to 100), Crabgrass, Large (large (Lg) crabgrass; 125 g ai/ha, postemergence): 15 | Plant response rating (0 to 100), Crabgrass, Large (large (Lg) crabgrass; 250 g ai/ha, postemergence): 20 | Plant response rating, Crabgrass, Large (large (Lg) crabgrass; [10]): 5 | Plant response rating, Crabgrass, Large (large (Lg) crabgrass; Postemergence, 62 g ai/ha): 5 | Plant response rating (0 to 100), Lambsquarters (lambsquarters; 125 g ai/ha, postemergence): 75 | Plant response rating (0 to 100), Lambsquarters (lambsquarters; 250 g ai/ha, postemergence): 85 | Plant response rating, Lambsquarters (lambsquarters; [11]): 40 | Plant response rating, Lambsquarters (lambsquarters; [8]): 75 | Plant response rating (0 to 100), Soybean (soybean; 125 g ai/ha, postemergence): 75 | Plant response rating (0 to 100), Soybean (soybean; 250 g ai/ha, postemergence): 80 | Plant response rating, Soybean (soybean; [11]): 40 | Plant response rating, Soybean (soybean; [8]): 65 | Plant response rating (0 to 100), Oilseed Rape (oilseed rape; 125 g ai/ha, postemergence): 40 | Plant response rating (0 to 100), Oilseed Rape (oilseed rape; 250 g ai/ha, postemergence): 65 | Plant response rating, Oilseed Rape (oilseed rape; [11]): 35 | Plant response rating, Oilseed Rape (oilseed rape; [8]): 40 | Plant response rating (0 to 100), Waterhemp (waterhemp; 125 g ai/ha, postemergence): 60 | Plant response rating (0 to 100), Waterhemp (waterhemp; 250 g ai/ha, postemergence): 80 | Plant response rating, Waterhemp (waterhemp; [11]): 35 | Plant response rating, Waterhemp (waterhemp; [8]): 60 | Plant response rating (0 to 100), Velvetleaf (velvetleaf; 125 g ai/ha, postemergence): 50 | Plant response rating (0 to 100), Velvetleaf (velvetleaf; 250 g ai/ha, postemergence): 65 | Plant response rating, Velvetleaf (velvetleaf; [11]): 30 | Plant response rating, Velvetleaf (velvetleaf; [8]): 35

Fc1cccc(Oc2ncc(Cl)cn2)c1-n1cc(C2CC2)nn1 [Compound 155]
Barnyardgrass plant response rating (barnyardgrass [1]; [9]): 100 | Plant response rating, Barnyardgrass (barnyardgrass [2]; [9]): 100 | Plant response rating, Corn (corn; [9]): 100 | Plant response rating, Rice (rice): 50 | Plant response rating, Sedge, Umbrella (sedge, umbrella): 80 | Plant response rating (0 to 100), Crabgrass, Large (large (Lg) crabgrass; [5]): 5 | Crabgrass, Large plant response rating (large (Lg) crabgrass; 31 g ai/ha, postemergence, visual rating, 13 to 15 days): 5 | Plant response rating, Crabgrass, Large (large (Lg) crabgrass; [6]): 15 | Plant response rating, Crabgrass, Large (large (Lg) crabgrass; Postemergence, 62 g ai/ha): 5 | Plant response rating (0 to 100), Lambsquarters (lambsquarters; [5]): 65 | Lambsquarters plant response rating (lambsquarters; [13]): 90 | Plant response rating, Lambsquarters (lambsquarters; [7]): 98 | Plant response rating, Lambsquarters (lambsquarters; [8]): 98 | Plant response rating (0 to 100), Soybean (soybean; [5]): 5 | Soybean plant response rating (soybean; [13]): 70 | Plant response rating, Soybean (soybean; [7]): 80 | Plant response rating, Soybean (soybean; [8]): 75 | Plant response rating (0 to 100), Oilseed Rape (oilseed rape; [5]): 60 | Oilseed Rape plant response rating (oilseed rape; [13]): 50 | Plant response rating, Oilseed Rape (oilseed rape; [7]): 80 | Plant response rating, Oilseed Rape (oilseed rape; [8]): 50 | Plant response rating (0 to 100), Waterhemp (waterhemp; [5]): 45 | Waterhemp plant response rating (waterhemp; [13]): 65 | Plant response rating, Waterhemp (waterhemp; [7]): 98 | Plant response rating, Waterhemp (waterhemp; [8]): 80 | Plant response rating (0 to 100), Velvetleaf (velvetleaf; [5]): 45 | Velvetleaf plant response rating (velvetleaf; [13]): 75 | Plant response rating, Velvetleaf (velvetleaf; [7]): 85 | Plant response rating, Velvetleaf (velvetleaf; [8]): 70

— patent US9695155B2, “Herbicidal substituted pyrimidinyloxy benzene compounds” (E. I. DU PONT DE NEMOURS AND COMPANY, priority 2013, dated 2017)
